The values that follow come from patent US8470534B2, “Methods of predicting resistance or sensitivity to therapies for cancer” (priority 2006, dated 2013).

Assay [1] relates to MCF7, T47D, and Zr-75-1 cells. Briefly: BrdU incorporation under hormone deprivation / antiestrogen (CDT, CDT/Tam, CDT/ICI). The class given is cell-based, human. Here is the method: To understand the impact of RB deficiency on the response to hormone deprivation therapy, cells are cultured in CDT, CDT/Tam, or in the presence of pure antiestrogen, ICI182780 (CDT/ICI). Following treatment with these modalities, cells are labeled with BrdU to determine the influence of each agent on cell-cycle progression and the corresponding influence of RB knockdown on this response (FIG. 4B). These experiments are recapitulated in the polyclonal populations of T47D and Zr-75-1 donor and siRb88 cells (FIG. 4C). […] To elucidate the long-term growth effects of these therapies, cell proliferation assays are performed over 9 days. RB-proficient and -deficient MCF7 cells are seeded at equal densities and cultured in CDT/Tam (FIG. 4D). […] Similar results are evident in the same experiments with both T47D and Zr-75-1 RB-proficient and -deficient polyclonal pools (FIG. 4E).
(§1) RB target gene upregulation is a prognostic indicator in human breast cancers. RB performs a myriad of functions, the most well understood being repression of the E2F family of transcription factors. To determine the specific influence of the E2F axis on bypassing therapy, an activator E2F is overexpressed in wild-type MCF7 cells. Specifically, cells are infected either with an adenovirus encoding E2F3 (ad-E2F3) or a control virus (Ad-LacZ) and are harvested 3 days after infection for immunoblot analysis of levels of known RB-E2F targets (FIG. 5A). […] As expected, no changes are detected in RB levels, and CDK4 serves as a loading control. In order to assess the response to therapeutic intervention, 3 days after infection Ad-E2F3- or AdLacZ-infected MCF7 cells are separated into 2 major treatment groups: hormone therapy and DNA damage therapy. The estrogen ablation group is then cultured in the absence of estrogen and in the presence of Tam and ICI as described above. Alternatively, the cells in the DNA damage therapy group are treated with 16 μM CDDP for 18 hours prior to washing or treatment with 5 Gy IR. Cells from both therapy groups are BrdU labeled, and the replicative fraction of treated cells is determined with respect to untreated control cells (FIG. 5B).
To study the effect of estrogen depletion, cells are cultured for 72 hours in phenol red-free DMEM supplemented with 10% CDT serum with addition of 10^−9 M 4-HydroxyTam or 10^−6 M ICI where indicated. Cell growth assays are performed by trypsinizing cells and counting by trypan blue exclusion every 3 days.
Cells treated with IR are exposed to ^137Cs (dose rate: 0.67 Gy/min) at room temperature in tissue culture media. Culture with clinical grade CDDP for 18 hours is performed for all CDDP treatments. For all proliferation studies, cells are labeled with BrdU for 10 hours or 5 hours for LXSN/LXSN-p53dd infected cells, and BrdU immunofluorescence is performed as previously described. All BrdU results are expressed as a percentage of untreated control cells set to 100%, unless otherwise noted.
For orientation: Uptake of a labelled nucleoside into DNA is a usual measure of proliferation.

Assay [2] relates to MCF7, T47D, and Zr-75-1 cells. Kind of assay: BrdU incorporation (cell-cycle checkpoint) after CDDP treatment. The class given is cell-based, human. Here is the method: The RB and p53 tumor suppressors are known to be critical for induction of DNA damage checkpoints, and therapies inducing DNA damage are used as an additional line of treatment for ER-positive breast cancers resistant to hormonal therapy. Therefore, the role of these tumor suppressors in the response to therapeutic doses of DNA-damaging agents is investigated. Wild-type MCF7, T47D, and Zr-75-1 cells are treated with 0, 8, or 16 μM CDDP and labeled with BRDU to determine the effect of the agent on cell-cycle progression. […] To specifically probe the impact of RB in the response to DNA damage, T47D and Zr-75-1 polyclonal donor and siRb88 cells are utilized. […] To confirm these findings, MCF7 donor 1 and siRb28 cells are treated with either CDDP as described above or with 0, 2.5, or 5 Gy ionizing radiation (IR). […] To determine the long-term effect of DNA damage therapy upon proliferation, cell growth assays are performed wherein the RB-proficient and deficient MCF7 clones are plated at equal density and treated with 2.5 or […].
as §1
The MCF7, T47D, and Zr-75-1 cell lines are obtained from ATCC and propagated in DMEM containing 10% FS supplemented with 100 U/ml penicillin/streptomycin and 2 mM L-glutamine at 37° C. in air containing 5% CO2. […] Cells are infected with Ad-lacZ at a multiplicity of infection of 50, at which 95% of cells are infected (as determined by plaque assay in 293 cells) or with 2.7×10^11 virus particles/ml of Ad-E2F3 and cultured for 3 days prior to use. […]

For assay [3], the system named is MCF7 donor or siRb xenograft tumors. Kind of assay: Nude mouse xenograft therapeutic study. It is filed as in vivo, nude mice. Here is the method: The xenograft model system is then utilized to test the response of RB-deficient tumors to CDDP therapy. Tumors are developed in the flanks of mice by injecting MCF7 donor or siRb cells into the flanks of mice and implanting a […] (E2) pellet into the back. When tumors reached 100-110 mm^3, mice received 5 mg/kg CDDP every 4 days for 5 courses.
To assess the role of RB in the therapeutic response of MCF7 cells in vivo, the xenograft model is again employed. Upon the attainment of tumors of approximately 100-120 mm^3, mice are deprived of estrogen and treated with Tam. […] (FIG. 4F). […] All tumors are weighed upon exclusion, and RB-deficient tumors are more than 3 times heavier than control tumors following Tam therapy (FIG. 4G).
Five- to 8-week-old female ovariectomized athymic nude mice are anesthetized, and an E2 pellet (1.7 mg/pellet, 90-day release) or placebo is surgically implanted in the back. Following implantation, 200 μl of a PBS- and phenol red-free Matrigel matrix basement membrane, solution (3:1) containing 2×10^6 cells is injected subcutaneously into the flank, or contralaterally where noted. Tumor volume is measured with calipers every 4 days using the equation V=0.52 (width)^2 ×(length). In the therapeutic studies, when tumor volume reaches 100-120 mm^3, animals are placed into 1 of 3 therapeutic groups (each group containing at least 6 animals): control animals retaining the estrogen pellet, antiestrogen-treated animals, or CDDP-treated animals. Animals in the antiestrogen treatment group are anesthetized, the estrogen pellet is surgically removed, and a Tam pellet (5 mg/pellet, 60-day release) implanted. The CDDP-treated animals receive 5 mg/kg CDDP injected i.p. on a q4dx5 schedule (every 4 days for 5 courses). All animals are injected i.p. with 150 mg/kg BrdU (Sigma-Aldrich) 1 hour prior to euthanization. Xenograft tumors are weighed and fixed in 10% neutral buffered formalin, paraffin embedded, and cut into 5-ÿm sections. For immunohistochemical staining, sections are deparaffinized in xylene and rehydrated through a graded series of ethanol/water solutions. A BrdU detection kit is utilized as recommended by the manufacturer. BrdU incorporation is scored in a blinded manner, and at least 500 cells per section are counted from several random fields.

Molecules are shown by their SMILES.

Consider `C[C@]12CC[C@@H]3c4ccc(O)cc4C[C@@H](CCCCCCCCC[S+]([O-])CCCC(F)(F)C(F)(F)F)[C@H]3[C@@H]1CC[C@@H]2O` (stereo partly shown) [ICI182780], for which, in assay [1] (Ad-E2F3-infected versus control infected MCF7 cells, absence of estrogen plus agent), the “cell-cycle arrest (replicative fraction, BrdU)” value is recorded as “significantly reduced levels of cell-cycle arrest”. In assay [1] (RB-depleted cells (MCF7 siRb28, T47D and Zr-75-1 siRb88), CDT serum plus agent, 3 days), the “cell-cycle inhibition by the agent (BrdU labeling)” value was “significantly reduced”. The “cell-cycle progression (BrdU labeling)” value in assay [1] (cells harboring functional RB (MCF7, T47D, Zr-75-1 donor), CDT serum plus agent, 3 days, 10^−9 M 4-HydroxyTam or 10^−6 M ICI) was “elicit cell-cycle inhibition”.
As to `N.N.[Cl][Pt][Cl]` [CDDP, cis-diamminedichloroplatinum II], the “cell-cycle arrest (replicative fraction, BrdU)” value in assay [2] (Ad-E2F3-infected versus control infected MCF7 cells, 16 μM CDDP for 18 hours) is “significantly reduced levels of cell-cycle arrest”. Besides, the “DNA damage checkpoint (BrdU labeling)” value in assay [2] (MCF7 siRb28 versus donor 1 cells, CDDP 0, 8, or 16 μM) is “RB deficiency promotes bypass of the DNA damage checkpoints”. Besides, the “BrdU incorporation following DNA damage” value in assay [2] (RB-deficient (siRb88) T47D and Zr-75-1 cells, 0, 8, or 16 μM CDDP) was “continue to incorporate BrdU efficiently”. Also, in assay [2] (wild-type RB-positive MCF7, T47D, Zr-75-1 cells, 0, 8, or 16 μM CDDP for 18 hours, BrdU 10 hours), the “effect on cell-cycle progression (BrdU labeling)” value is “dose-dependent cell-cycle checkpoint”. Moreover, in assay [3] (RB-deficient MCF7 tumors versus control tumors, 5 mg/kg CDDP every 4 days for 5 courses), the “tumor response during treatment, RB-deficient tumors” value is “regressed more rapidly”. Besides, in assay [3] (RB-proficient and RB-deficient MCF7 tumors, 5 mg/kg CDDP i.p. every 4 days for 5 courses), the “tumor response during treatment” value was “both tumor types regressed”. The “tumor weight upon excision, tumors lacking RB relative to control tumors” value in assay [3] (following CDDP therapy) was “less than half as much as control tumors”.
